Reference: US9169260B2 (MERCK SHARP & DOHME CORP., priority 2011, dated 2015)

Molecular target: GST tagged IRAK-4 (Homo sapiens (Human), UniProt Q9NWZ3)
Experiment: IRAK-4 Kinase Assay (IMAP fluorescence polarization)
Format: biochemical
Conditions: 100 μM ATP, 30 minutes at 25° C.
Protocol: The kinase activity of IRAK-4 is determined by its ability to catalyze the phosphorylation of a fluorescent polypeptide substrate. The extent of phosphorylation is measured using the IMAP technology (Molecular Devices) where the phosphorylated fluorescent substrate binds to the large M(III)-based nanoparticles which reduces the rotational speed of the substrate and thus increases its fluorescent polarization (FP).
20 μl reaction mixture contains 10 mM TriHCl, pH 7.2, 0.5 nM GST tagged IRAK-4 (SignalChem), 100 nM fluorescent peptide substrate (RP7030, Molecular Devices), 100 μM ATP, 1 mM DTT, 1 mM MgCl2, and 0.01% Tween 20. The reaction is initiated by the addition of ATP. After incubation for 30 minutes at 25° C., 60 μl of Progressive IMAP Reagent (Molecular Devices) is added to stop the reaction. Change in RP7030's FP is determined by a FP reader (Analyst HT, LH, BioSystems).

Sequence of GST tagged IRAK-4 (Q9NWZ3 whole entry): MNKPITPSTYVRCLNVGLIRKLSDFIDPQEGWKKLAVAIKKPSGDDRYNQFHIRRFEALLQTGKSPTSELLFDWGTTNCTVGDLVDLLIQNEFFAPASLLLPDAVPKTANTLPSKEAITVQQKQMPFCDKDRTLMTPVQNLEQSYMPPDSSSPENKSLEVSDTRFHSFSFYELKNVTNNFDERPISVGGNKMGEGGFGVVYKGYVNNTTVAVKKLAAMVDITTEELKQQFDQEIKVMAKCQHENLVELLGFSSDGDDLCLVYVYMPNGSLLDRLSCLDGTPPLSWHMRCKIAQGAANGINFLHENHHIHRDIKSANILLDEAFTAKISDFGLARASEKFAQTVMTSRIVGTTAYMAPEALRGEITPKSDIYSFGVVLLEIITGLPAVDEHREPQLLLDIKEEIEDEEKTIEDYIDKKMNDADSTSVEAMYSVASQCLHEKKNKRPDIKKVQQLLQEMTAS

Cc1ccc(-n2nc(C3COCCN3)cc2NC(=O)c2cnn3cccnc23)nc1 (stereo not drawn) [Example 166, N-(1-(5-methylpyridin-2-yl)-3-(morpholin-3-yl)-1H-pyrazol-5-yl)pyrazolo[1,5-a]pyrimidine-3-carboxamide]
IC50 (μM): < 1 µM

CN1CCC(c2cc(NC(=O)c3cnn4cccnc34)n(-c3ccc(C4CC4)cn3)n2)CC1 [Example 147, N-(1-(5-cyclopropylpyridin-2-yl)-3-(1-methylpiperidin-4-yl)-1H-pyrazol-5-yl)pyrazolo[1,5-a]pyrimidine-3-carboxamide]
IC50: < 0.1 µM

CCOC(=O)N1CCC(N2CCC(c3cc(NC(=O)c4cnn5cccnc45)n(-c4ccc(C)cn4)n3)CC2)CC1 [Example 276, ethyl 4-{1-(5-methylpyridin-2-yl)-5-[(pyrazolo[1,5-a]pyrimidin-3-ylcarbonyl)amino]-1H-pyrazol-3-yl}-1,4′-bipiperidine-1′-carboxylate]
IC50: < 0.1 µM

Cc1ccc(-n2nc(C3CCN(C4CN(C(=O)NC(C)C)C4)CC3)cc2NC(=O)c2cnn3cccnc23)cc1 [Example 235, N-[3-(1-{1-[(1-methylethyl)carbamoyl]azetidin-3-yl}piperidin-4-yl)-1-(4-methylphenyl)-1H-pyrazol-5-yl]pyrazolo[1,5-a]pyrimidine-3-carboxamide]
IC50 (μM): < 1 µM

Cc1ccc(-n2nc(C3CN(Cc4cncs4)C3)cc2NC(=O)c2cnn3cccnc23)cc1 [Example 312, N-{1-(4-methylphenyl)-3-[1-(1,3-thiazol-5-ylmethyl)azetidin-3-yl]-1H-pyrazol-5-yl}pyrazolo[1,5-a]pyrimidine-3-carboxamide]
IC50: < 0.1 µM

Cc1ccc(-n2nc(-c3ccc(=O)n(C)c3)cc2NC(=O)c2cnn3cccnc23)cc1 [Example 337, N-[3-(1-methyl-6-oxo-1,6-dihydropyridin-3-yl)-1-(4-methylphenyl)-1H-pyrazol-5-yl]pyrazolo[1,5-a]pyrimidine-3-carboxamide]
IC50 (μM): < 1 µM

COCCS(=O)(=O)N1CC(c2cc(NC(=O)c3cnn4cccnc34)n(-c3ccc(C)cc3)n2)C1 [Example 86, N-(3-(1-((2-methoxyethyl)sulfonyl)azetidin-3-yl)-1-(p-tolyl)-1H-pyrazol-5-yl)pyrazolo[1,5-a]pyrimidine-3-carboxamide]
IC50 (μM): < 1 µM

O=C(Nc1cc(C2CCN(C3CCC3)CC2)nn1-c1ccc(Cl)cc1F)c1cnn2cccnc12 [Example 51, N-(1-(4-chloro-2-fluorophenyl)-3-(1-cyclobutylpiperidin-4-yl)-1H-pyrazol-5-yl)pyrazolo[1,5-a]pyrimidine-3-carboxamide]
IC50: < 0.1 µM

Cc1ccc(-n2nc(C3CCN(S(=O)(=O)c4cc(F)cc(F)c4)CC3)cc2NC(=O)c2cnn3cccnc23)cc1 [Example 360, N-[3-{1-[(3,5-difluorophenyl)sulfonyl]piperidin-4-yl}-1-(4-methylphenyl)-1H-pyrazol-5-yl]pyrazolo[1,5-a]pyrimidine-3-carboxamide]
IC50 (μM): < 1 µM

Cc1ccc(-n2nc(C3CCN(C(=O)CCN(C)C)CC3)cc2NC(=O)c2cnn3cc(Br)cnc23)cc1 [Example 113, 6-bromo-N-(3-(1-(3-(dimethylamino)propanoyl)piperidin-4-yl)-1-(p-tolyl)-1H-pyrazol-5-yl)pyrazolo[1,5-a]pyrimidine-3-carboxamide]
IC50: < 0.1 µM

CCC(C)N1CCC(c2cc(NC(=O)c3cnn4cccnc34)n(-c3ccc(C)cc3)n2)CC1 (stereo not drawn) [Example 209]
IC50: < 0.1 µM

Cc1ccc(-n2nc(C3=CC(=O)N(C)CC3)cc2NC(=O)c2cnn3cccnc23)cc1 [Example 354, N-[3-(1-methyl-6-oxo-1,2,3,6-tetrahydropyridin-4-yl)-1-(4-methylphenyl)-1H-pyrazol-5-yl]pyrazolo[1,5-a]pyrimidine-3-carboxamide]
IC50 (μM): < 1 µM

Cc1ccc(-n2nc(C3CN(Cc4cncnc4)C3)cc2NC(=O)c2cnn3cccnc23)cc1 [Example 310, N-{1-(4-methylphenyl)-3-[1-(pyrimidin-5-ylmethyl)azetidin-3-yl]-1H-pyrazol-5-yl}pyrazolo[1,5-a]pyrimidine-3-carboxamide]
IC50 (μM): < 1 µM

COc1ccc(S(=O)(=O)N2CCC(c3cc(NC(=O)c4cnn5cccnc45)n(-c4ccc(C)cc4)n3)CC2)cc1OC [Example 359, N-[3-{1-[(3,4-dimethoxyphenyl)sulfonyl]piperidin-4-yl}-1-(4-methylphenyl)-1H-pyrazol-5-yl]pyrazolo[1,5-a]pyrimidine-3-carboxamide]
IC50 (μM): < 1 µM

Cc1ccc(-n2nc(N3CCN(C4CCCCCC4)CC3)cc2NC(=O)c2cnn3cccnc23)nc1 [Example 322, N-[3-(4-cycloheptylpiperazin-1-yl)-1-(5-methylpyridin-2-yl)-1H-pyrazol-5-yl]pyrazolo[1,5-a]pyrimidine-3-carboxamide]
IC50: < 0.1 µM

Cc1ccc(-n2nc(-c3ccc(F)cc3)cc2NC(=O)c2cnn3cccnc23)cc1 [Example 135, N-(3-(4-fluorophenyl)-1-(p-tolyl)-1H-pyrazol-5-yl)pyrazolo[1,5-a]pyrimidine-3-carboxamide]
IC50 (μM): > 1 µM

Cc1ccc(-n2nc(C3CCN(C)CC3)cc2NC(=O)c2cnn3cccnc23)cc1 [Example 36, N-(3-(1-methylpiperidin-4-yl)-1-(p-tolyl)-1H-pyrazol-5-yl)pyrazolo[1,5-a]pyrimidine-3-carboxamide]
IC50 (μM): < 1 µM

O=C(Nc1cc(C2CCN(CC(F)(F)F)CC2)nn1-c1ccc(C2CC2)cc1F)c1cnn2cccnc12 [Example 76, N-(1-(4-cyclopropyl-2-fluorophenyl)-3-(1-(2,2,2-trifluoroethyl)piperidin-4-yl)-1H-pyrazol-5-yl)pyrazolo[1,5-a]pyrimidine-3-carboxamide]
IC50 (μM): < 1 µM

[2H]C([2H])([2H])c1ccc(-n2nc(N3CCN(S(C)(=O)=O)CC3)cc2NC(=O)c2cnn3cccnc23)nc1 [Example 200, N-(1-(5-trideuteromethylpyridin-2-yl)-3-(4-(methylsulfonyl)piperazin-1-yl)-1H-pyrazol-5-yl)pyrazolo[1,5-a]pyrimidine-3-carboxamide]
IC50: < 0.1 µM

CN1CCN(c2cc(NC(=O)c3cnn4cccnc34)n(-c3ccc(C4CC4)cn3)n2)CC1 [Example 201, N-(1-(5-cyclopropylpyridin-2-yl)-3-(4-methylpiperazin-1-yl)-1H-pyrazol-5-yl)pyrazolo[1,5-a]pyrimidine-3-carboxamide]
IC50: < 0.1 µM

Cc1ccc(-n2nc(C3CCN(C4CCN(c5ccc(F)cc5)C4)CC3)cc2NC(=O)c2cnn3cccnc23)nc1 (stereo not drawn) [Example 266, N-[3-{1-[1-(4-fluorophenyl)pyrrolidin-3-yl]piperidin-4-yl]-1-(5-methylpyridin-2-yl)-1H-pyrazol-5-yl}pyrazolo-[1,5-a]pyrimidine-3-carboxamide]
IC50: < 0.1 µM

Cc1ccc(-n2nc(-c3ccc(CN4CCOCC4)cc3)cc2NC(=O)c2cnn3cccnc23)cc1 [Example 145, N-(3-(4-(morpholinomethyl)phenyl)-1-(p-tolyl)-1H-pyrazol-5-yl)pyrazolo[1,5-a]pyrimidine-3-carboxamide]
IC50: < 0.1 µM

CNS(=O)(=O)c1ccc(-c2cc(NC(=O)c3cnn4cccnc34)n(-c3ccc(F)cc3F)n2)cc1 [Example 34, N-(1-(2,4-difluorophenyl)-3-(4-(N-methylsulfamoyl)phenyl)-1H-pyrazol-5-yl)pyrazolo[1,5-a]pyrimidine-3-carboxamide]
IC50: < 0.1 µM

Cc1ccc(-n2nc(C3CCC(N(C)C)CC3)cc2NC(=O)c2cnn3cccnc23)cc1 (stereo not drawn) [Example 5, N-(3-(4-(dimethylamino)cyclohexyl)-1-(p-tolyl)-1,4-pyrazol-5-yl)pyrazolo[1,5-a]pyrimidine-3-carboxamide]
IC50 (μM): < 1 µM

Cc1ccc(-n2nc(C3CCN(S(=O)(=O)c4ccc(Cl)cc4Cl)CC3)cc2NC(=O)c2cnn3cccnc23)cc1 [Example 391, N-[3-{1[(2,4-dichlorophenyl)sulfonyl]piperidin-4-yl}-1-(4-methylphenyl)-1H-pyrazol-5-yl]pyrazolo[1,5-a]pyrimidine-3-carboxamide]
IC50 (μM): > 1 µM

Cc1ccc(-n2nc(N3CCN(C4CCCCC4)CC3)cc2NC(=O)c2cnn3cccnc23)nc1 [Example 319, N-[3-(4-cyclohexylpiperazin-1-yl)-1-(5-methylpyridin-2-yl)-1H-pyrazol-5-yl]pyrazolo[1,5-a]pyrimidine-3-carboxamide]
IC50: < 0.1 µM

Cc1ccc(-n2nc(C3CCN(S(=O)(=O)c4cccnc4Cl)CC3)cc2NC(=O)c2cnn3cccnc23)cc1 [Example 388, N-[3-{1-[(2-chloropyridin-3-yl)sulfonyl]piperidin-4-yl}-1-(4-methylphenyl)-1H-pyrazol-5-yl]pyrazolo[1,5-a]pyrimidine-3-carboxamide]
IC50 (μM): < 1 µM

Cc1ccc(-n2nc(N3CCN(C4CCOCC4)CC3)cc2NC(=O)c2cnn3cccnc23)nc1 [Example 321, N-{1-(5-methylpyridin-2-yl)-3-[4-(tetrahydro-2H-pyran-4-yl)piperazin-1-yl]-1H-pyrazol-5-yl}pyrazolo[1,5-a]pyrimidine-3-carboxamide]
IC50: < 0.1 µM

COc1ncccc1CN1CC(c2cc(NC(=O)c3cnn4cccnc34)n(-c3ccc(C)cc3)n2)C1 [Example 313, N-[3-{1-[(2-methoxypyridin-3-yl)methyl]azetidin-3-yl}-1-(4-methylphenyl)-1H-pyrazol-5-yl]pyrazolo[1,5-a]pyrimidine-3-carboxamide]
IC50: < 0.1 µM

Cc1ccc(-n2nc(C3CCN(S(=O)(=O)c4cccc5ccccc45)CC3)cc2NC(=O)c2cnn3cccnc23)cc1 [Example 357, N-{1-(4-methylphenyl)-3-[1-(naphthalen-1-ylsulfonyl)piperidin-4-yl]-1H-pyrazol-5-yl}pyrazolo[1,5-a]pyrimidine-3-carboxamide]
IC50 (μM): < 1 µM
